The values that follow come from publication PMC8303886, “Polyphenylglyoxamide-Based Amphiphilic Small Molecular Peptidomimetics as Antibacterial Agents with Anti-Biofilm Activity” (International Journal of Molecular Sciences, 2021).

The test system of data set [1] is MRC-5 normal human lung fibroblasts. In words: MTT cytotoxicity assay. The data set is classed as cell-based. The conditions noted are these: 72 h drug incubation; for IC50: read-out: IC50 against MRC-5 normal human lung fibroblasts. The procedure: The IC50 values of the tested peptidomimetics were determined from a dose-response curve. […] The therapeutic indices for each tested peptidomimetic against Gram-positive S. aureus and Gram-negative E. coli were calculated by dividing the IC50 value against human cells by the corresponding MIC value (Table 2).
The toxicity of the peptidomimetics against normal human lung fibroblasts MRC-5 cells was measured, using an MTT (3-(4,5-dimethylthiazol-2-yl)-2,5-diphenyltetrazolium bromide) (Sigma Aldrich, St. Louis, MO, USA) colorimetric assay. The cells were cultured in minimal essential medium (MEM, Invitrogen) containing 10% foetal bovine serum (FBS). The cells were maintained at 37 °C in 5% CO2 as an adherent monolayer and was passaged upon reaching confluence by standard cell culture techniques. MRC-5 cells were seeded at 5000 cells/well in 96-well plates to ensure full confluence (quiescence) and left overnight to adhere to the plate wells. The adherent cells were treated with 1–500 μM of compounds by dissolving in DMSO and serially diluting with media. TY-01 was used as the positive control. The final concentration of DMSO was 0.5% (v/v). After the 72 h drug incubation, […] stock MTT solution (5 mg/mL) was added, and the cells were incubated for another 3.5–4 h. The MTT solution containing media was carefully aspirated without displacing the purple crystals from the bottom, and […] acid-isopropanol was added to all wells and mixed slowly by shaking with an orbital shaker to dissolve the dark blue crystals. […] The determination of IC50 values was performed using GraphPad Prism 7 (GraphPad, San Diego, CA, USA). Each experiment was performed in triplicate and was repeated in three independent experiments.
Background: Formazan colour is commonly taken as a measure of viable cells.

Data set [2] concerns P. aeruginosa (PAO1). In words: Minimum inhibitory concentration (MIC) assay against P. aeruginosa. The data set is classed as cell-based. Conditions: Pseudomonas aeruginosa.
Data set [3] relates to E. coli (K12). In words: Minimum inhibitory concentration (MIC) assay against E. coli. The data set is classed as cell-based. The conditions noted are these: Escherichia coli.
The test system of data set [4] is S. aureus (SA38). In words: Minimum inhibitory concentration (MIC) assay against S. aureus. The data set is classed as cell-based, Staphylococcus aureus. The conditions noted are these: S. aureus SA38, read-out: MIC S. aureus.
The test system of data set [5] is pre-established S. aureus biofilms. In words: Disruption of pre-established S. aureus biofilms (crystal violet assay). Type of data set: cell-based, Staphylococcus aureus. The method, then:
As bacterial biofilms are one of the major challenges in treating bacterial infection, the ability of the synthesised peptidomimetics to disrupt pre-established biofilms was investigated.
(§1) Bacterial cultures (S. aureus and E. coli) were cultured in MHB at 37 °C with shaking at 120 rpm for 24 h. The resulting bacterial culture was washed twice with MHB with centrifugation after each wash. The bacterial solution was then diluted with fresh MHB to a turbidity of OD660 = 0.1 in MHB (equivalent to 10^8 colony forming unit (CFU)/mL of bacteria), followed by diluting to 10^6 CFU/mL in MHB. A total of 200 µL of the bacterial solution was dispensed to wells in a flat-bottom 96-well plate (Costar). The biofilm was then grown in the plate at 37 °C for 24 h. After incubation, loosely bound cells were washed away with 1× phosphate-buffered saline (PBS, pH 7.4). The biofilms were then supplemented with different concentrations of peptidomimetics dissolved in DMSO and incubated at 37 °C with shaking at 120 rpm for a further 24 h. Biofilms adhered on the plate substratum were quantified, using crystal violet staining as described previously. The experiment was performed in triplicate.

Data set [6] relates to E. coli (K12). Also on record: method as in PMID 32947921. Conditions: previously reported; cited from earlier work.
The subject of data set [7] is P. aeruginosa (PAO1). On the set-up: method as in PMID 32947921. Conditions: previously reported; cited from earlier work.
Data set [8] concerns S. aureus (SA38). The conditions noted are these: previously reported, cited from earlier work.
In data set [9] the test system is pre-established E. coli biofilms. In words: Disruption of pre-established E. coli biofilms (crystal violet assay). The data set is classed as cell-based, Escherichia coli. The conditions noted are these: 2× MIC, 24 h treatment (64 μM for 17c). The procedure:
as §1

[10] abbreviates: highest concentration tested 250 μM.
The mark [11] stands for this setting: 4× MIC, 24 h treatment (32 μM for 17c).

Each structure is given as a SMILES string. ≈ marks a conversion by molar mass, not a printed value. Where “and” joins values, the source holds several entries; their conditions need not be identical. Equal entries are not always repeated. Where two headings read alike, the source gives them in different places.

As to `CCCCCCCCCCCCS(=O)(=O)Nc1ccc(Br)cc1C(=O)C(=O)NCCCNC(=N)N.Cl` [Compound 34b, 2-(5-Bromo-2-(dodecylsulfonamido)phenyl)-N-(3-guanidinopropyl)-2-oxoacetamide hydrochloride], the melting point (in general, the temperature of the solid-liquid transition) is 50 to 50.1 °C. In addition, in data set [1] (Homo sapiens, MRC5, 72 h), the 50% inhibitory concentration (IC50) – broadly, the concentration that gives 50% inhibition – was 21.1 µM and 14.8 µg/mL. Further, in the data set with P. aeruginosa (PAO1) [2], the MIC (in general, the lowest concentration found to suppress growth) is more than 153 µg/mL. Also, the minimal inhibitory concentration (MIC) in the data set with P. aeruginosa (PAO1) [2] (setting [10]) was more than 250 µM. Also, in the data set on E. coli (K12) [3], the MIC is > 250 µM and > 153 µg/mL. Moreover, in the data set with S. aureus (SA38) [4] (Staphylococcus aureus), the MIC is 16 µM and 9.8 µg/mL. The “disruption of pre-established S. aureus biofilms” value in data set [5] (1× MIC, 24 h treatment) was 20–36% and 36%. The “disruption of pre-established S. aureus biofilms” value in [5] (setting [11]) stood at 42%.
As for `CCCCCCCCS(=O)(=O)Nc1ccc(-c2ccc(-c3ccccc3)cc2)cc1C(=O)C(=O)NCCCN(C)C` [Compound 10d, N-(3-(Dimethylamino)propyl)-2-(4-(octylsulfonamido)-[1,1′:4′,1″-terphenyl]-3-yl)-2-oxoacetamide], the IC50 in data set [1] stood at 3.48 µM; in [1] (Homo sapiens, MRC5, 72 h), 2.01 µg/mL. For the same compound, the MIC came to 8 µM with S. aureus (SA38) [4] and 4.6 µg/mL in the data set with S. aureus (SA38) [4] (Staphylococcus aureus).
Turning to `CCCCCCCCS(=O)(=O)Nc1ccc(-c2ccccc2)cc1C(=O)C(=O)NCCCNC(=N)N` [Compound 33c], the “MIC E. coli” value with E. coli (K12) [6] was 63 μM and 35 μg/mL. In addition, the “MIC P. aeruginosa” value with P. aeruginosa (PAO1) [7] was 63 μM and 35 μg/mL. In addition, the “MIC S. aureus” value in the data set on S. aureus (SA38) [8] was 8 μM and 4.4 μg/mL.
With `CCCCCCCCS(=O)(=O)Nc1ccc(-c2cccc(-c3ccccc3)c2)cc1C(=O)C(=O)NCCC[N+](C)(C)C.[I-]` [Compound 23, N,N,N-Trimethyl-3-(2-(4-(octylsulfonamido)-[1,1′:3′,1″-terphenyl]-3-yl)-2-oxoacetamido)propan-1-aminium iodide], in data set [1] (Homo sapiens, MRC5, 72 h), the IC50 was 15.4 µM and 11.1 µg/mL. The minimal inhibitory concentration (MIC) with S. aureus (SA38) [4] (Staphylococcus aureus) was 8 µM and 5.8 µg/mL.
In the case of `CCCCCCCCS(=O)(=O)Nc1ccc(Br)cc1C(=O)C(=O)NCCCN(C)C` [Compound 10b], the “MIC S. aureus” value in the data set on S. aureus (SA38) [8] is 94 μM and 47 μg/mL.
Compound `CCCCCCCCS(=O)(=O)Nc1ccc(-c2ccc(-c3ccccc3)cc2)cc1C(=O)C(=O)NCCCNC(=N)N.Cl` [Compound 33d, N-(3-Guanidinopropyl)-2-(4-(octylsulfonamido)-[1,1′:4′,1″-terphenyl]-3-yl)-2-oxoacetamide hydrochloride] showed a melting point of 49.6 to 50.1 °C. In addition, the IC50 in data set [1] (Homo sapiens, MRC5, 72 h) was 16.9 µM and 10.6 µg/mL. Also, the MIC with S. aureus (SA38) [4] (Staphylococcus aureus) is 16 µM and 10 µg/mL.
With `CCCCCCCCCCCCCCCCS(=O)(=O)Nc1ccc(Br)cc1C(=O)C(=O)NCCCNC(=N)N.Cl` [Compound 35b, 2-(5-Bromo-2-(hexadecylsulfonamido)phenyl)-N-(3-guanidinopropyl)-2-oxoacetamide hydrochloride], the melting point was 64.3 to 66.6 °C. In addition, the MIC in the data set on S. aureus (SA38) [4] (Staphylococcus aureus) was > 250 µM and > 167 µg/mL.
Take `CCCCCCCCS(=O)(=O)Nc1ccc(Br)cc1C(=O)C(=O)NCCCNC(=N)N` [Compound 33b]: the “MIC S. aureus” value is 12 μM and 6.7 μg/mL with S. aureus (SA38) [8] (listed as 1, 33b); 12 µM (≈ 6.22 µg/mL) in the data set with S. aureus (SA38) [8] (listed as 1).
Regarding `CCCCCCCCCCCCS(=O)(=O)Nc1ccc(-c2ccccc2)cc1C(=O)C(=O)NCCCNC(=N)N.Cl` [Compound 34c, 2-(4-(Dodecylsulfonamido)-[1,1′-biphenyl]-3-yl)-N-(3-guanidinopropyl)-2-oxoacetamide hydrochloride], the melting point lay in the range of 73.2 to 73.5 °C. For the same compound, in the data set on S. aureus (SA38) [4] (Staphylococcus aureus), the MIC is 32 µM and 19 µg/mL.
Compound `CCCCCCCCCCCCCCCCS(=O)(=O)Nc1ccc(-c2ccccc2)cc1C(=O)C(=O)NCCCNC(=N)N.Cl` [Compound 35c, N-(3-Guanidinopropyl)-2-(4-(hexadecylsulfonamido)-[1,1′-biphenyl]-3-yl)-2-oxoacetamide hydrochloride] came in with a melting point of 74.5 to 77.1 °C. In addition, the MIC with S. aureus (SA38) [4] (Staphylococcus aureus) is > 250 µM and > 166 µg/mL.
For the compound `CCCCCCCCS(=O)(=O)Nc1ccccc1C(=O)C(=O)NCCCN(C)C` [Compound 10a], in the data set on S. aureus (SA38) [8], the “MIC S. aureus” value was 250 μM and 106 μg/mL.
On to `CCCCCCCCS(=O)(=O)Nc1ccccc1C(=O)C(=O)NCCCN(C)C` [Compound 13a], for which the “MIC S. aureus” value in the data set on S. aureus (SA38) [8] is > 250 μM and > 116 μg/mL.
Regarding `CCCCCCCCCCCCCCCCS(=O)(=O)Nc1ccc(-c2ccccc2)cc1C(=O)C(=O)NCCCN(C)C` [Compound 12c, N-(3-(Dimethylamino)propyl)-2-(4-(hexadecylsulfonamido)-[1,1′-biphenyl]-3-yl)-2-oxoacetamide], the melting point was 76.7 to 79.4 °C. The minimum inhibitory concentration (MIC) in the data set on S. aureus (SA38) [4] (Staphylococcus aureus) is > 250 µM and > 153 µg/mL.
Take `CCCCCCCCCCCCCCCCS(=O)(=O)Nc1ccccc1C(=O)C(=O)NCCC[N+](C)(C)C.[I-]` [Compound 18a, 3-(2-(2-(Hexadecylsulfonamido)phenyl)-2-oxoacetamido)-N,N,N-trimethylpropan-1-aminium iodide]: the IC50 in data set [1] (Homo sapiens, MRC5, 72 h) is 52.4 µM and 35.6 µg/mL. Also, the MIC in the data set with P. aeruginosa (PAO1) [2] (setting [10]) is more than 250 µM; in the data set with E. coli (K12) [3], more than 250 µM; in the data set with S. aureus (SA38) [4] (Staphylococcus aureus), 8 µM and 5.4 µg/mL. Further, the “disruption of pre-established S. aureus biofilms” value in [5] (1× MIC, 24 h treatment) was 20–36%.
Turning to `CCCCCCCCS(=O)(=O)Nc1ccc(-c2ccccc2)cc1C(=O)C(=O)NCCCN(C)C` [Compound 10c], the “MIC S. aureus” value in the data set on S. aureus (SA38) [8] was 24 μM and 12 μg/mL.
With `CCCCCCCCS(=O)(=O)Nc1ccc(-c2ccc(-c3ccccc3)cc2)cc1C(=O)C(=O)NCCCN(C)C.Cl` [Compound 13d, N,N-Dimethyl-3-(2-(4-(octylsulfonamido)-[1,1′:4′,1″-terphenyl]-3-yl)-2-oxoacetamido)propan-1-aminium chloride], in data set [1], the “IC50 against MRC-5 normal human lung fibroblasts” value is 2.31 µg/mL and the IC50 worked out at 3.76 µM. In data set [1] (Homo sapiens, MRC5, 72 h), the IC50 is ~4 µM and ~2 µg/mL. For the same compound, in the data set on S. aureus (SA38) [4] (Staphylococcus aureus), the MIC is 16 µM and 9.8 µg/mL.
Consider `CCCCCCCCCCCCS(=O)(=O)Nc1ccc(Br)cc1C(=O)C(=O)NCCC[N+](C)(C)C.[I-]` [Compound 17b, 3-(2-(5-Bromo-2-(dodecylsulfonamido)phenyl)-2-oxoacetamido)-N,N,N-trimethylpropan-1-aminium iodide], for which the “disruption of pre-established E. coli biofilms” value in [9] is 31%. Besides, the IC50 in data set [1] (Homo sapiens, MRC5, 72 h) was 18.3 µM and 12.9 µg/mL. The minimal inhibitory concentration (MIC) is more than 176 µg/mL with P. aeruginosa (PAO1) [2]; more than 250 µM against P. aeruginosa (PAO1) [2] (setting [10]); 32 µM and 22 µg/mL in the data set with E. coli (K12) [3]; 8 µM and 5.6 µg/mL in the data set with S. aureus (SA38) [4] (Staphylococcus aureus). Moreover, the “disruption of pre-established S. aureus biofilms” value in [5] (1× MIC, 24 h treatment) is reported as 20–36%; in data set [5] (setting [11]), 38%.
`CCCCCCCCS(=O)(=O)Nc1ccccc1C(=O)C(=O)NCCCNC(=N)N` [Compound 33a]: the “MIC S. aureus” value with S. aureus (SA38) [8] was 47 μM and 22 μg/mL.
For the compound `CCCCCCCCS(=O)(=O)Nc1ccc(-c2ccccc2)cc1C(=O)C(=O)NCCCN(C)C` [Compound 13c], the “MIC S. aureus” value in the data set with S. aureus (SA38) [8] was 16 μM and 8.6 μg/mL.
For `CCCCCCCCS(=O)(=O)Nc1ccc(-c2cccc(-c3ccccc3)c2)cc1C(=O)C(=O)NCCCN(C)C.Cl` [Compound 22, N,N-Dimethyl-3-(2-(4-(octylsulfonamido)-[1,1′:3′,1″-terphenyl]-3-yl)-2-oxoacetamido)propan-1-aminium chloride], the IC50 in data set [1] (Homo sapiens, MRC5, 72 h) is 3.46 µM and 2.13 µg/mL. Moreover, the values for the MIC in the data set on S. aureus (SA38) [4] and in the data set with S. aureus (SA38) [4] (Staphylococcus aureus) were 16 µM and 9.8 µg/mL, respectively.
In the case of `CCCCCCCCS(=O)(=O)Nc1ccc(Br)cc1C(=O)C(=O)NCCCN(C)C` [Compound 13b], in the data set on S. aureus (SA38) [8], the “MIC S. aureus” value is 63 μM and 34 μg/mL.
